Assay results published in PMC4992173, “Divergent synthesis and identification of the cellular targets of deoxyelephantopins” (Nature Communications, 2016).

Molecular target: T1, Thioredoxin domain-containing protein 12 (TXNDC12) (Homo sapiens, UniProt O95881)
T1 construct: endogenous in cells; host or cells: MCF7
Experiment: SILAC competitive profiling with probe 24c in MCF7 lysates: TXNDC12
Type: binding
Conditions: 1 h, then 10 µM 24c
Description: In our efforts to determine the direct molecular targets of deoxyelephantopin we first performed a gel-based competitive in situ proteomic profiling assay[41] […] While the greater conformational flexibility of probe 24c could potentially lead to more promiscuous target engagement relatively to deoxyelephantopin, it was favoured based on the fact that an alkyne moiety appended to the rigid scaffold of deoxyelephantopin may hinder some of its interactions. MCF7 cells were pretreated with various concentrations of deoxyelephantopin for 4 h, harvested, lysed and the lysates were treated with the fluorogenic probe 24c-Cy3 (10 μM; Supplementary Fig. 10). […] Furthermore, cells were pretreated with 20 μM concentration of deoxyelephantopin or 24c and the proteomic profiles were compared (Fig. 6b, Supplementary Fig. 11). Multiple bands were detected that were equally competed by both DEP and 24c, thus again confirming that 24c can be used as an acceptable clickable analogue of deoxyelephantopin in pulldown assays. Having established the optimal labelling conditions by SDS–PAGE, we next carried out a mass spectrometry-based competitive profiling assay[42] coupled with the method of stable isotope labelling of amino acids in culture (SILAC)[43]. […]
visualization were performed as described above. Images were quantified with ImageJ and kinetics values were calculated using GraphPad Prism (V6.03). […]

T1 sequence (O95881 27-172): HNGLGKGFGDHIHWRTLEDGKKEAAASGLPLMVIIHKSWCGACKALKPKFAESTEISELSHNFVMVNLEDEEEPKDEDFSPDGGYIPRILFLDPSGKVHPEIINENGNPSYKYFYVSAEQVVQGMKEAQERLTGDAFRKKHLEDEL

## C=C(C)C(=O)O[C@H]1CC2=C[C@@H](C/C(C)=C/[C@H]3OC(=O)C(=C)[C@H]13)OC2=O [deoxyelephantopin]
  SILAC ratio 20 µM Deoxyelephantopin/DMSO with 24c: 0.12
